Experimental data taken from ChEMBL document CHEMBL4229455, “Synthesis and anticancer activity of novel bisindolylhydroxymaleimide derivatives with potent GSK-3 kinase inhibition” (Bioorg Med Chem, 2018).

Assays:
[1] = biological target: CDK2/Cyclin A2 (Homo sapiens, UniProt P24941); assay: Inhibition of full length human CDK2/cyclin A using histone H1 as substrate in presence of [gamma-33P]ATP; assay type: protein-complex assay
[2] = biological target: Glycogen synthase kinase-3 (Sus scrofa, UniProt B2LUN4+I6LNT8); assay: Inhibition of domestic porcine brain full length GSK-3alpha/beta using GS-1 as substrate in presence of [gamma-33P]ATP; set-up: species or system Sus scrofa domesticus
[3] = tested on: COLO 205; assay: Cytotoxicity against human COLO205 cells assessed as cell growth at 10 uM after 48 hrs by SRB assay relative to control; assay type: functional; settings: COLO 205, 48 h, read-out: Activity
[4] = tested on: A498; assay: Cytotoxicity against human A498 cells assessed as cell growth at 10 uM after 48 hrs by SRB assay relative to control; assay type: functional; settings: A498, 48 h, read-out: Activity
[5] = biological target: T1, Serine/threonine-protein kinase haspin (Homo sapiens, UniProt Q8TF76); assay: Inhibition of recombinant human haspin kinase domain expressed in bacteria using histone H3 (1 to 21 residues) peptide as substrate in presence of [gamma-33P]ATP
T1 sequence (Q8TF76 whole entry): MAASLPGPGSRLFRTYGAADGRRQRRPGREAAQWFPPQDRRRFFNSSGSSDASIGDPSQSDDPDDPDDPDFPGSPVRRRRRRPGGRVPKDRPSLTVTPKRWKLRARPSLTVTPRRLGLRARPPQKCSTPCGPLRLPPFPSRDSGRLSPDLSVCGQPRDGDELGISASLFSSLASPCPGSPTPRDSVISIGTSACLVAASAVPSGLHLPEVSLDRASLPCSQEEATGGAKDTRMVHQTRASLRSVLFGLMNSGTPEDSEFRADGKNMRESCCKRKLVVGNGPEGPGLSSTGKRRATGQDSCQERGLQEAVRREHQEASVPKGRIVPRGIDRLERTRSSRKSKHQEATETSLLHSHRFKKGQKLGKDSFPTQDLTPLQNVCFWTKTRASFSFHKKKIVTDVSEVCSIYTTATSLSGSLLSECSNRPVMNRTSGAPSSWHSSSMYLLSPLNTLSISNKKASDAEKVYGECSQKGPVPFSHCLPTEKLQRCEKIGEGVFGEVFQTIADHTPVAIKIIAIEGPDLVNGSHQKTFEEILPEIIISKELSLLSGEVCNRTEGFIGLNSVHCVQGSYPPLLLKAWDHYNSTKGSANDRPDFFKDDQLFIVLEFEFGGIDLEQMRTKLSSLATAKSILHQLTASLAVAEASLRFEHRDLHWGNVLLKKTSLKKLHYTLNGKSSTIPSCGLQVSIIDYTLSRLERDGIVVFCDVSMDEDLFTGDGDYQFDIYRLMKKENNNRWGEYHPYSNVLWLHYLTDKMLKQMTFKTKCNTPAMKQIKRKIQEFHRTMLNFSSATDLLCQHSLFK

[6] = tested on: U-251; assay: Cytotoxicity against human U251 cells assessed as cell growth at 10 uM after 48 hrs by SRB assay relative to control; assay type: functional; settings: U-251, 48 h, read-out: Activity
[7] = tested on: UACC-62; assay: Cytotoxicity against human UACC62 cells assessed as cell growth at 10 uM after 48 hrs by SRB assay relative to control; assay type: functional; settings: UACC-62, 48 h, read-out: Activity
[8] = biological target: CDK9/cyclin T1 (Homo sapiens) (UniProt O60563+P50750); assay: Inhibition of recombinant full length human CDK9/cyclin T expressed in baculovirus infected Sf9 insect cells assessed as residual activity at 10 uM using YSPTSPSYSPTSPSYSPTSPSKKKK as substrate in presence of [gamma-33P]ATP
[9] = tested on: HCC 2998; assay: Cytotoxicity against human HCC2998 cells assessed as cell growth at 10 uM after 48 hrs by SRB assay relative to control; assay type: functional; settings: HCC 2998, 48 h, read-out: Activity
[10] = tested on: NCI-H23; assay: Cytotoxicity against human NCI-H23 cells assessed as cell growth at 10 uM after 48 hrs by SRB assay relative to control; assay type: functional; settings: NCI-H23, 48 h, read-out: Activity
[11] = tested on: CCRF-CEM; assay: Cytotoxicity against human CCRF-CEM cells assessed as cell growth at 10 uM after 48 hrs by SRB assay relative to control; assay type: functional; settings: read-out: Activity
[12] = tested on: Malme-3M; assay: Cytotoxicity against human MALME-3M cells assessed as cell growth at 10 uM after 48 hrs by SRB assay relative to control; assay type: functional; settings: read-out: Activity
[13] = tested on: RXF 393; assay: Cytotoxicity against human RXF393 cells assessed as cell growth at 10 uM after 48 hrs by SRB assay relative to control; assay type: functional; settings: RXF 393, 48 h, read-out: Activity
[14] = Inhibition of domestic porcine brain full length […] using RRKHAAIGSpAYSITA as substrate in presence of [gamma-33P]ATP; set-up: species or system Sus scrofa domesticus
[15] = tested on: PC-3; assay: Cytotoxicity against human PC3 cells assessed as cell growth at 10 uM after 48 hrs by SRB assay relative to control; assay type: functional; settings: PC-3, 48 h, read-out: Activity
[16] = tested on: NCI-H322M; assay: Cytotoxicity against human NCI-H322M cells assessed as cell growth at 10 uM after 48 hrs by SRB assay relative to control; assay type: functional; settings: read-out: Activity
[17] = tested on: NCI-H226; assay: Cytotoxicity against human NCI-H226 cells assessed as cell growth at 10 uM after 48 hrs by SRB assay relative to control; assay type: functional; settings: NCI-H226, 48 h, read-out: Activity
[18] = tested on: M14; assay: Cytotoxicity against human M14 cells assessed as cell growth at 10 uM after 48 hrs by SRB assay relative to control; assay type: functional; settings: M14, 48 h, read-out: Activity
[19] = tested on: BT-549; assay: Cytotoxicity against human BT549 cells assessed as cell growth at 10 uM after 48 hrs by SRB assay relative to control; assay type: functional; settings: BT-549, 48 h, read-out: Activity
[20] = tested on: HCT-15; assay: Cytotoxicity against human HCT15 cells assessed as cell growth at 10 uM after 48 hrs by SRB assay relative to control; assay type: functional; settings: HCT-15, 48 h, read-out: Activity
[21] = tested on: HT-29; assay: Cytotoxicity against human HT-29 cells assessed as cell growth at 10 uM after 48 hrs by SRB assay relative to control; assay type: functional; settings: HT-29, 48 h, read-out: Activity
[22] = tested on: A549; assay: Cytotoxicity against human A549 cells assessed as cell growth at 10 uM after 48 hrs by SRB assay relative to control; assay type: functional; settings: A549, 48 h, read-out: Activity
[23] = tested on: NCI/ADR-RES; assay: Cytotoxicity against human NCI-ADR-RES cells assessed as cell growth at 10 uM after 48 hrs by SRB assay relative to control; assay type: functional; settings: read-out: Activity
[24] = tested on: OVCAR-8; assay: Cytotoxicity against human OVCAR8 cells assessed as cell growth at 10 uM after 48 hrs by SRB assay relative to control; assay type: functional; settings: OVCAR-8, 48 h, read-out: Activity
[25] = tested on: KM12; assay: Cytotoxicity against human KM12 cells assessed as cell growth at 10 uM after 48 hrs by SRB assay relative to control; assay type: functional; settings: KM12, 48 h, read-out: Activity
[26] = tested on: MDA-MB-468; assay: Cytotoxicity against human MDA-MB-468 cells assessed as cell growth at 10 uM after 48 hrs by SRB assay relative to control; assay type: functional; settings: MDA-MB-468, 48 h, read-out: Activity

SMILES | IC50 [1] [µM] | IC50 [2] [µM] | growth at 10 µM [3] [%] | growth at 10 µM [4] [%] | IC50 [5] [µM] | growth at 10 µM [6] [%] | growth at 10 µM [7] [%] | Activity [8] [%] | growth at 10 µM [9] [%] | growth at 10 µM [10] [%] | growth at 10 µM [11] [%] | IC50 [14] [µM] | growth at 10 µM [15] [%] | growth at 10 µM [18] [%] | growth at 10 µM [20] [%] | growth at 10 µM [21] [%] | growth at 10 µM [22] [%] | growth at 10 µM [23] [%] | growth at 10 µM [24] [%] | growth at 10 µM [25] [%] | further results
Cn1cc(C2=C(c3c[nH]c4ccccc34)C(=O)N(O)C2=O)c2ccccc21 | > 10 | 0.2 | 86 | 79.1 | > 10 | 98.5 | 77.4 | 19 | 89.9 | 76.9 | 82.2 | > 10 | 78.7 | 81 | 74.8 | 81.5 | 91.9 | 89.5 | 95.6 | 81.7 | growth at 10 µM [12]: 68.7%; growth at 10 µM [13]: 86.3%; growth at 10 µM [16]: 81.9%; growth at 10 µM [17]: 76.9%; growth at 10 µM [19]: 82.7%
Cn1cc(C2=C(c3cn(C)c4ncccc34)C(=O)NC2=O)c2ccccc21 | 0.1 | 0.03 | -63 |  | > 10 | 27 | 27 to 36.6 | -10 | 30 to 58.9 | 30 to 49.3 | 6.61 to 9 | > 10 | 23 to 44.6 | 7 to 17.5 | 21 to 33.4 | 2.28 to 5 | 21 to 28.8 | 34 to 53.5 | 23 to 53.8 | 8.78 to 12 | growth at 10 µM [12]: 20.3 to 29%
CC(C)n1cc(C2=C(c3c[nH]c4ccccc34)C(=O)N(O)C2=O)c2ccccc21 | > 10 | 1.5 | 98.5 | 93.5 | > 10 | 100 | 90 | 44 | 105 | 88.2 | 95.8 | > 10 | 99.7 | 98.9 | 99.9 | 99.2 | 102 | 102 | 107 | 88.3 | growth at 10 µM [12]: 102%; growth at 10 µM [13]: 100%; growth at 10 µM [16]: 103%; growth at 10 µM [17]: 102%; growth at 10 µM [19]: 99.7%
Cn1cc(C2=C(c3cn(CCCCCC(=O)O)c4ccccc34)C(=O)N(O)C2=O)c2ccccc21 | 4 | 3.2 | 109 | 91.9 | > 10 | 102 | 99 | 15 | 110 | 95.2 | 84.4 | > 10 | 76.6 | 103 | 96.5 | 105 | 94.6 | 100 | 87.7 | 99.3 | growth at 10 µM [26]: 102%; growth at 10 µM [13]: 111%; growth at 10 µM [16]: 99.8%; growth at 10 µM [17]: 91.3%; growth at 10 µM [19]: 103%
O=C(O)CCCCCn1cc(C2=C(c3c[nH]c4ccccc34)C(=O)N(O)C2=O)c2ccccc21 | > 10 | 0.75 | 102 | 88.5 | > 10 | 102 | 95.7 | 19 | 119 | 97.6 | 96.2 | > 10 | 84.9 | 92.9 | 97.3 | 101 | 98.2 | 106 | 99.4 | 95.6 | growth at 10 µM [26]: 104%; growth at 10 µM [13]: 101%; growth at 10 µM [16]: 101%; growth at 10 µM [17]: 92.5%; growth at 10 µM [19]: 99.9%
Cn1cc(C2=C(c3cn(CCCCCC#N)c4ccccc34)C(=O)N(O)C2=O)c2ccccc21 | > 10 | 0.27 | 92.6 | 76.7 | > 10 | 102 | 82 | 17 | 111 | 88.1 | 83.3 | > 10 | 80.5 | 100 | 91.2 | 90.1 | 95.8 | 102 | 100 | 88.2 | growth at 10 µM [26]: 87.5%; growth at 10 µM [13]: 90%; growth at 10 µM [16]: 98%; growth at 10 µM [17]: 77.8%; growth at 10 µM [19]: 81.4%
CC(C)n1cc(C2=C(c3cn(C)c4ccccc34)C(=O)N(O)C2=O)c2ccccc21 | 7 | 0.2 | 101 | 99 | > 10 | 98.8 | 78.2 | -7 | 110 | 81.8 |  | > 10 | 88.4 | 94.8 | 96.9 | 105 | 97.1 | 92.4 | 94.8 | 87.4 | growth at 10 µM [12]: 89%; growth at 10 µM [13]: 89.2%; growth at 10 µM [16]: 91.7%; growth at 10 µM [17]: 77.2%; growth at 10 µM [19]: 93.2%
